Data set [1] in a line: Solubility assayed in water. The following applies: water and mixtures of water with water-miscible solvents; qualitative. The data set is classed as physicochemical. As to the method: In particular, the solubility of the compounds of the present invention in comparison with hydrochloride was assayed in water and recorded.
The nature of data set [2]: Comparative solubility study in McIlvaine Buffer pH 3.8. The data set is classed as physicochemical. As to the method: The solubility study was performed for the dihydrochloride salt of the present invention using the McIlvaine Buffer pH 3.8.
Data set [3] can be described thus: Stability by storage under accelerated stability testing conditions. The class given is physicochemical. The note with it: storage at 40° C., 75% RH and 50° C., 90% RH.
The nature of data set [4]: Single dose oral pharmacokinetics comparative study of Lurasidone monohydrochloride v. dihydrochloride. The class given is in vivo. The note with it: 10 mg/kg, mean plasma, oral gavage, male Sprague Dawley rats. Here is the method:
Lurasidone salts mean plasma PK parameters were quantified with an API 3200 LC-MS/MS system and illustrated in Table 1.
Male Sprague Dawley rats aged 6-8 weeks and weighing 180-220 g will be used for experiment. Animals will be acclimatized for a minimum period of 5 days. Overnight fasted animals were administered the test substance by oral gavage with a dose equivalent dose of 10 mg/kg of the parent compound with ready to use formulation provided and at a dose volume of 10.06 & 9.6 mL/kg b.w. With mild inhalation anesthesia (Isoflurane), blood samples (200-250 μL) were collected by retro-orbital route at specified time points. Lurasidone hydrochloride and dihydrochloride samples were administered by oral route at a dose volume of 10.06 & 9.6 mL/kg body weight respectively. The actual dosage volume for each animal were calculated based on the fasted body weight. All the animals were administered a single dose on the day of experiment. Blood samples were collected in pre-labeled centrifuge tubes containing anticoagulant (K2EDTA). Blood sampling time points for both the groups were as follows Group 1 & 2—Subgroup 1 (n=5)—0.08, 0.16, 0.33, 0.5, 0.67, 0.83, 1.00 & Subgroup 2 (n=5)—1.5, 2, 3, 6, 12, 18, 24 h. All the animals were administered a single dose on the day of experiment. Blood samples were centrifuged at 4000 rpm at 4° C. for 10 minutes and the corresponding plasma samples were harvested into pre-labeled tubes. Plasma samples will be stored at −80° C. until analysis. The blood samples were centrifuged at 4000 rpm for 10 minutes at 4° C. and the corresponding plasma samples were transferred to clean pre-labeled tubes and stored at −80° C. until analysis.

Data set [5] in a line: Comparative solubility study in McIlvaine Buffer pH 3.8. The data set is classed as physicochemical. The source holds these as a separate data set.
The conditions of data set [6]: cited from earlier work.
The conditions of data set [7]: in vivo; cited from earlier work.
[8] abbreviates: male, Sprague Dawley, rat, plasma, po.
Where [9] appears, read: listed as Monohydrochloride, hydrochloride.

“And” between values parts separate entries of the source, which are not always exact repeats. Identical values can stand only once. Counter-ions that a name gives are not always drawn. Like-named read-outs stand apart in the source and are kept apart here.

With `O=C1[C@@H]2[C@H]3CC[C@H](C3)[C@@H]2C(=O)N1C[C@@H]1CCCC[C@H]1CN1CCN(c2nsc3ccccc23)CC1` [Di HCl Salt, (3aR,4S,7R,7aS)-2-{(1R,2R)-2-[4-(1,2-benzisothiazol-3-yl)piperazin-1-ylmethyl]cyclohexylmethyl}hexahydro-4,7-methano-2H-isoindole-1,3-dione dihydrochloride dihydrate], the solubility in water result in data set [1] is “excellent solubility”. In data set [2] (average of sample 1 and 2, dihydrochloride dihydrate), the “Solubility (mg/ml) Avg.” value is 0.6472 mg/mL and 0.9020 mg/mL. The “Solubility (mg/ml) Sample 1” value in data set [2] (sample 1, dihydrochloride dihydrate) is 0.7220 mg/mL and 0.9548 mg/mL. The “Solubility (mg/ml) Sample 2” value in data set [2] (sample 2, dihydrochloride dihydrate) is 0.5724 mg/mL and 0.8498 mg/mL. In addition, the stability profile result in data set [3] was “excellent stability profile”. Besides, in data set [4] (setting [8]), the AUC(0-inf) was determined as 577 ng·h/mL and the AUC(0-t) is 570 ng·h/mL. Besides, the Cmax in data set [4] (male, Sprague Dawley, rat, plasma, po, read-out: Cmax) was found to be 659 ng/mL. In addition, in data set [4] (dihydrochloride dihydrate), the AUCextrap is reported as 1.29%, the MRTlast was determined as 1.05 h and the T1/2 came out at 1.07 h.

Turning to `O=C1[C@@H]2[C@H]3CC[C@H](C3)[C@@H]2C(=O)N1C[C@@H]1CCCC[C@H]1CN1CCN(c2nsc3ccccc23)CC1` [Mono HCl Salt, (3aR,4S,7R,7aS)-2-[((1R,2R)-2-{[4-(1,2-benzisothiazol-3-yl)-piperazin-1-yl]methyl}cyclohexyl)methyl]hexahydro-1H-4,7-methanisoindol-1,3-dione hydrochloride], in data set [5] (average of sample 1 and 2, hydrochloride), the “Solubility (mg/ml) Avg.” value was determined as 0.2126 mg/mL. Moreover, the solubility entry in data set [5] (listed as Lurasidone hydrochloride) is given as “less than 0.212 mg/ml”. Also, the solubility result in data set [5] (listed as mono hydrochloride salt) is listed as “around 0.212 mg/ml”. For the same compound, the “Solubility (mg/ml) Sample 1” value in data set [5] (sample 1, hydrochloride) turned out to be 0.2104 mg/mL. Moreover, in data set [5] (sample 2, hydrochloride), the “Solubility (mg/ml) Sample 2” value came to 0.2148 mg/mL. Also, the “solubility in 0.1 N HCl” value in data set [6] (0.1 N HCl) is recorded as “practically insoluble”. In addition, in data set [6] (water), the solubility in water result is “very slightly soluble”. Moreover, the bioavailability result in data set [7] is “less than 12%”. Besides, in data set [4] (setting [8]), the MRT last stood at 0.95 h and the half-life is 1.19 h. In addition, in data set [4] (setting [9]), the AUCextrap is listed as 1.37%, the AUCinf was determined as 357.32 ng·h/mL, the AUClast came out at 352.41 ng·h/mL and the highest concentration (Cmax) came out at 412.39 ng/mL. The Tmax in data set [4] (rat) turned out to be 0.33 h.

The values are drawn from US9580414B2, “Salts and hydrates of antipsychotics” (SHASUN PHARMACEUTICALS LIMITED, priority 2012, dated 2017).
